Experimental data as given in patent US10562912B2 (C&C Research Laboratories, priority 2013, dated 2020).

How the values were obtained:
Type in all cases: cell-based
C-33A = assay: Cell growth inhibition assay, cell line C-33A; details: Homo sapiens, C-33A cells
NCI-H23 = assay: Cell growth inhibition assay, lung cancer cell line NCI-H23; details: Homo sapiens
Description: (§1) The inhibitory effects of the compounds of the present invention against the growth of cancer cells were evaluated as shown below. The cancer cell lines including stomach cancer cell line (AGS), breast cancer cell lines (MDA-MB-231, MDA-MB-468, and BT-549), prostate cancer cell lines (LNCaP and DU-145), colon cancer cell line (HCT116), ovarian cancer cell line (SW626), liver cancer cell line (Hep3B), kidney cancer cell line (ACHN), lung cancer cell line (NCI-H23) and blood cancer cell lines (HEL92.1.7 and U266) were cultured under the protocol provided by each supplier. A medium supplemented with 10 ng/mL of IL-6 was used for LNCaP, a prostate cancer cell line, when treated with a drug. Each type of cells to be used in experiments were sub-cultured in a 96-well plate by counting the exact number of cells using Tali™ Image-based Cytometer (Life Technologies). In a 96-well plate, AGS, HCT116, and DU-145 were employed with 3,000 cells/well; NCI-H23, SW626, Hep3B, ACHN, BT-549, MDA-MB-231, HEL92.1.7, and U266 were employed with 5,000 cells/well; and LNCaP and MDA-MB-468 were employed with 10,000 cells/well. The cells were treated with the compounds listed in Examples which were diluted in various concentrations. Upon completion of the compounds treatment, AGS, HCT116, SW626, DU145, NCI-H23, Hep3B, ACHN, BT-549, LNCaP, HEL92.1.7, and U266 cells were cultured at 37° C. under 5% CO2 for from 72 to 96 hours, and MDA-MB-231 and MDA-MB-468 cells were cultured at 37° C. in air for from 72 to 96 hours. Subsequently, the cells were observed under microscope and drug precipitation and particular findings were investigated and recorded. And then, the 96-well plate was placed at room temperature for 30 minutes, added with 20 μL/well of CellTiter-Glo solution (Cat No. G7573, Promega) and shaken for 10 minutes, followed by being subjected to the measurement using PHERAstar™ microplate reader (BMG LABTECH) according to the supplier's general luminometer protocol. […]

HEL92.1.7 = assay: Cell growth inhibition assay, blood cancer cell line HEL92.1.7; details: Homo sapiens, HEL 92.1.7, HEL92.1.7 blood cancer cell line
Procedure, shortened: (§2)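 Cells were seeded at 3,000/well (HCT116, DU-145) or 5,000/well (SW626 and the others) and exposed to serial compound dilutions for 72 to 96 h at 37 °C under 5% CO2. Viability was read as CellTiter-Glo luminescence against 0.1% DMSO and cell-free wells.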

Hep3B = assay: Cell growth inhibition assay, liver cancer cell line Hep3B; details: Homo sapiens
Description: (§3) The inhibitory effects of the compounds of the present invention against the growth of cancer cells were evaluated as shown below. The cancer cell lines including stomach cancer cell line (AGS), breast cancer cell lines (MDA-MB-231, MDA-MB-468, and BT-549), prostate cancer cell lines (LNCaP and DU-145), colon cancer cell line (HCT116), ovarian cancer cell line (SW626), liver cancer cell line (Hep3B), kidney cancer cell line (ACHN), lung cancer cell line (NCI-H23) and blood cancer cell lines (HEL92.1.7 and U266) were cultured under the protocol provided by each supplier. A medium supplemented with 10 ng/mL of IL-6 was used for LNCaP, a prostate cancer cell line, when treated with a drug. Each type of cells to be used in experiments were sub-cultured in a 96-well plate by counting the exact number of cells using Tali™ Image-based Cytometer (Life Technologies). In a 96-well plate, AGS, HCT116, and DU-145 were employed with 3,000 cells/well; NCI-H23, SW626, Hep3B, ACHN, BT-549, MDA-MB-231, HEL92.1.7, and U266 were employed with 5,000 cells/well; and LNCaP and MDA-MB-468 were employed with 10,000 cells/well. The cells were treated with the compounds listed in Examples which were diluted in various concentrations. Upon completion of the compounds treatment, AGS, HCT116, SW626, DU145, NCI-H23, Hep3B, ACHN, BT-549, LNCaP, HEL92.1.7, and U266 cells were cultured at 37° C. under 5% CO2 for from 72 to 96 hours, and MDA-MB-231 and MDA-MB-468 cells were cultured at 37° C. in air for from 72 to 96 hours. Subsequently, the cells were observed under microscope and drug precipitation and particular findings were investigated and recorded. And then, the 96-well plate was placed at room temperature for 30 minutes, added with 20 μL/well of CellTiter-Glo solution (Cat No. G7573, Promega) and shaken for 10 minutes, followed by being subjected to the measurement using PHERAstar™ microplate reader (BMG LABTECH) according to the supplier's general luminometer protocol. Wells where only culture liquid added without cell plating were used as a negative control, whereas wells where culture liquid containing 0.1% DMSO instead of the compounds listed in Examples were used as a positive control.

STAT3 = biological target: T1, STAT3 (Homo sapiens, UniProt P40763); assay: STAT3 reporter gene assay (luciferase), LNCaP stable cell line (pSTAT3-TA-luc), IL-6 stimulation
T1 construct: plasmid pSTAT3-TA-luc), which contains a stably operating STAT3 promoter; endogenous in cells
Procedure, shortened: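 Cytotoxicity was run on a duplicate plate with CellTiter-Glo, while the other plate gave luciferase read-outs from lysed LNCaP pSTAT3-TA-luc reporter cells. Cells were treated with graded compound concentrations plus IL-6 (10 ng/mL final) for 24–48 h in 3% DCC-FBS medium. Unstimulated and stimulated wells served as negative and positive controls.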

SW1417 = assay: Cell growth inhibition assay, cell line SW1417; details: Homo sapiens, SW1417 cells
MDA-MB-468 = assay: Cell growth inhibition assay, breast cancer cell line MDA-MB-468; details: Homo sapiens, MDA-MB-468 breast cancer cell line
Description: as §3

BT-549 = assay: Cell growth inhibition assay, breast cancer cell line BT-549; details: Homo sapiens, BT-549 breast cancer cell line
Description: as §3

SW626 = assay: Cell growth inhibition assay, ovarian cancer cell line SW626; details: Homo sapiens
Description: as §1

LNCaP = assay: Cell growth inhibition assay, prostate cancer cell line LNCaP (medium with 10 ng/mL IL-6); details: Homo sapiens, medium supplemented with 10 ng/mL of IL-6, 10,000 cells/well
HCC1500 = assay: Cell growth inhibition assay, cell line HCC1500; details: HCC1500 cells
MDA-MB-361 = assay: Cell growth inhibition assay, cell line MDA-MB-361; details: Homo sapiens, MDA-MB-361 cells
MDA-MB-231 = assay: Cell growth inhibition assay, breast cancer cell line MDA-MB-231; details: Homo sapiens; MDA-MB-231 breast cancer cell line, 5,000 cells/well
DU-145 = assay: Cell growth inhibition assay, prostate cancer cell line DU-145; details: Homo sapiens, DU-145 prostate cancer cell line
Procedure, shortened: as §2

NCI-H1650 = assay: Cell growth inhibition assay, cell line NCI-H1650; details: Homo sapiens, NCI-H1650 cells
ACHN = assay: Cell growth inhibition assay, kidney cancer cell line ACHN; details: Homo sapiens
Description: as §1

NCI-H661 = assay: Cell growth inhibition assay, cell line NCI-H661; details: Homo sapiens, NCI-H661 cells
IM-9 = assay: Cell growth inhibition assay, cell line IM-9; details: Homo sapiens, IM-9 cells
NCI-H508 = assay: Cell growth inhibition assay, cell line NCI-H508; details: Homo sapiens, NCI-H508 cells
HCT116 = assay: Cell growth inhibition assay, colon cancer cell line HCT116; details: Homo sapiens, HCT-116 colon cancer cell line
Description: as §1

Raji = assay: Cell growth inhibition assay, cell line Raji; details: Homo sapiens, Raji cells
AGS = assay: Cell growth inhibition assay, stomach cancer cell line AGS; details: Homo sapiens; AGS stomach cancer cell line, 3,000 cells/well
U266 = assay: Cell growth inhibition assay, blood cancer cell line U266; details: Homo sapiens, U-266 blood cancer cell line
Description: as §3

T1 sequence (P40763 whole entry): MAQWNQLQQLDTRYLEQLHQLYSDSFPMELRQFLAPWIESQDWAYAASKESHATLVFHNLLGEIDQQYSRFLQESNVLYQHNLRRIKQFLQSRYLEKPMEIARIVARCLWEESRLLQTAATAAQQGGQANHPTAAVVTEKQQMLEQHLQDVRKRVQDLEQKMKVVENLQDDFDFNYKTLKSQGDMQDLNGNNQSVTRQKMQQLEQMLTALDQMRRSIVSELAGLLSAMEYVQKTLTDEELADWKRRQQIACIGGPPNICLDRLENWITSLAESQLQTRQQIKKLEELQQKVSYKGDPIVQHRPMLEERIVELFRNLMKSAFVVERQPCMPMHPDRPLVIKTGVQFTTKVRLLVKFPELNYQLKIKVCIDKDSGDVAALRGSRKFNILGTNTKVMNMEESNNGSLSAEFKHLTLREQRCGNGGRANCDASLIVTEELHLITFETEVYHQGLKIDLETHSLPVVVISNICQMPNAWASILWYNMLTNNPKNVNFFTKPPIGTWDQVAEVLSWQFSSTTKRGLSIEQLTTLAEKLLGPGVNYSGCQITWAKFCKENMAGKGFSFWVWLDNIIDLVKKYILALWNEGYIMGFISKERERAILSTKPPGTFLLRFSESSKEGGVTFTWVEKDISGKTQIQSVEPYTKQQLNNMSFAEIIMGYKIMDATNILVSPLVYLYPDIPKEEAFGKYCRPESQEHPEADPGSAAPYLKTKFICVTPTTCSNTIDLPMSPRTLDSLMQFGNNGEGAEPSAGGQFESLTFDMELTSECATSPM

SMILES | IC50 (NCI-H23) | IC50 (HEL92.1.7) | IC50 (Hep3B) | IC50 (STAT3) | IC50 (MDA-MB-468) | IC50 (BT-549) | IC50 (SW626) | IC50 (LNCaP) | IC50 (MDA-MB-231) | IC50 (DU-145) | IC50 (ACHN) | IC50 (HCT116) | IC50 (AGS) | IC50 (U266) | also measured
CN(c1ccc2cc(C(=O)Nc3cccc(-c4ccccc4C(F)(F)F)c3)[nH]c2c1)S(C)(=O)=O [Example 346, 6-(N-methylmethylsulfonamido)-N-(2′-(trifluoromethyl)-[1,1′-biphenyl]-3-yl)-1H-indole-2-carboxamide] | 1.7 µM | 1.3 µM | 2.2 µM | 0.2 µM | 0.14 µM | 1 µM | 0.29 µM | 0.463 µM | 0.18 µM | 0.37 µM | 0.37 µM | 1.5 µM |  |  | IC50 (C-33A): 0.3 µM; IC50 (SW1417): 0.35 µM; IC50 (HCC1500): 1.03 µM; IC50 (MDA-MB-361): 0.28 µM; IC50 (NCI-H1650): 0.62 µM; IC50 (NCI-H661): 0.09 µM; IC50 (IM-9): 0.51 µM; IC50 (NCI-H508): 0.22 µM; IC50 (Raji): 0.57 µM
COc1cc(OC(F)(F)F)cc(C(C)(C)c2cc(Br)cc(NC(=O)c3cc4cc(NS(C)(=O)=O)ccc4s3)c2)c1 [Example 36, N-(3-bromo-5-(2-(3-methoxy-5-(trifluoromethoxy)phenyl)propan-2-yl)phenyl)-5-(methylsulfonamido)benzo[b]thiophene-2-carboxamide] | < 0.21 µM | 0.27 µM | 2.2 µM | 0.027 µM | < 0.0076 µM | 0.043 µM | 0.013 µM | 0.21 µM | 0.005 µM | 0.006 µM | < 0.00085 µM | < 0.072 µM | 0.009 µM | 0.22 µM | 
COc1cc(OC(F)(F)F)cc(C(C)(C)c2cc(Br)cc(NC(=O)c3cc4ccc(NS(C)(=O)=O)cc4[nH]3)c2)c1 [Example 16, N-(3-bromo-5-(2-(3-methoxy-5-(trifluoromethoxy)phenyl)propan-2-yl)phenyl)-6-(methylsulfonamido)-1H-indole-2-carboxamide] | 0.3 µM | 0.14 µM | 2.1 µM | 0.112 µM | 0.02 µM | 0.26 µM | 0.066 µM | 0.48 µM | 0.025 µM | 0.024 µM | 0.004 µM | 0.31 µM | 0.044 µM | 0.25 µM | 
